Test results as given in patent US10301317B2, “Inhibitors of ERK and methods of use” (Kura Oncology, Inc., priority 2013, dated 2019).

Assays:
WM-266-4 cells = experiment: Tumor cell line proliferation assay (CellTiter Glo), WM-266-4; format: cell-based; details: Homo sapiens, 96 hours, read-out: WM-266-4 (V599D) Cell Proliferation IC50
H358 (Kras, G12C) cells = experiment: Tumor cell line proliferation assay (CellTiter Glo), H358; format: cell-based; details: Homo sapiens, NCI-H358, 96 hours
[1] = tested on: phospho-p90 RSK (RSK1 Thr359/Ser363) in A375 (Braf V600E) cells; experiment: Phospho-p90 RSK ELISA using A375 (Braf V600E) cells; format: cell-based; details: Homo sapiens, A-375, 2 hours compound treatment, read-out: Cellular Phospho-p90RSK IC50
A375 cells = experiment: Tumor cell line proliferation assay (CellTiter Glo), A375; format: cell-based; details: Homo sapiens, A-375, 96 h, read-out: A375 (V599E) Cell Proliferation IC50
ERK2 enzyme = ERK2 enzyme (Homo sapiens (Human), UniProt P28482); experiment: Z'-LYTE kinase assay, inhibition of ERK activity; format: biochemical; details: 100 μM ATP
Chain of ERK2 enzyme (P28482 whole entry): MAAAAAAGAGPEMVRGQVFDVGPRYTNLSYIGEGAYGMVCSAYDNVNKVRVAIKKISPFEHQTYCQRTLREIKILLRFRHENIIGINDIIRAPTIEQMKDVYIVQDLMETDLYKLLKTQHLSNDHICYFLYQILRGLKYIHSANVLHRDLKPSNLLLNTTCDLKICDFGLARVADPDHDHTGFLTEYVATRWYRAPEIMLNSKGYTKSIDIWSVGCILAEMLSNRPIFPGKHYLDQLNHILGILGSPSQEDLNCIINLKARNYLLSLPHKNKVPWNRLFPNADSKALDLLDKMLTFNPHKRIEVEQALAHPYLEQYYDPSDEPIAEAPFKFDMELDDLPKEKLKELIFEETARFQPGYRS
Method: The inhibition of ERK activity by the compounds disclosed herein was determined using the Z′-LYTE kinase assay kit (Life Technologies) with a Ser/Thr 3 peptide substrate (Life Technologies) according to manufacturers' instructions. […] The IC50 values for the compounds were determined with 3-fold serial dilutions in duplicate. […] The final DMSO concentration in the assay was 1%. Final reaction volume was 20 μL/well in 384-well plates. Kinase reactions were conducted or 1 hour followed by the assay development reaction (1 hour) in a 20 ul/well in a 384 well plate format.

[2] = In vitro Erk2, Z'-LYTE kinase assay

SMILES | IC50 (WM-266-4 cells) [µM] | IC50 (H358 (Kras, G12C) cells) [µM] | IC50 [1] [µM] | IC50 (A375 cells) [µM] | IC50 (ERK2 enzyme; In vitro, ERK2 enzyme) [µM] | IC50 (ERK2 enzyme; [2]) [µM]
Cc1cc(-c2n[nH]c3cc4c(cc23)CN([C@H](C)c2ccc(F)cc2)C(=O)N4)ccn1 [Example 5] | 0.25 to 1 | – | 0.25 to 1 | > 1 | – | –
COc1ncccc1CN1Cc2cc3c(-c4ccnc(C)c4)n[nH]c3cc2NC1=O [Example 9] | 0.25 to 1 | – | 0.25 to 1 | > 1 | – | –
Cc1cc(-c2n[nH]c3cc4[nH]c(=O)n(Cc5ccc(F)c(Cl)c5)c(=O)c4cc23)ccn1 [Example 15] | > 1 | – | 0.25 to 1 | > 1 | – | –
Cc1cc(-c2n[nH]c3cc4c(cc23)CN(C2(c3ccc(F)cc3)CC2)C(=O)N4)ccn1 [Example 17] | > 1 | – | 0.25 to 1 | > 1 | – | –
Cc1cc(-c2n[nH]c3cc4[nH]c(=O)n(Cc5ccccc5)c4cc23)ccn1 [Example 19] | > 1 | – | 0.25 to 1 | > 1 | – | –
Cc1cc(-c2n[nH]c3cc4[nH]c(=O)n(CCc5ccccc5)c4cc23)ccn1 [Example 20] | > 1 | – | > 1 | > 1 | – | –
Cc1cc(-c2n[nH]c3cc4[nH]c(=O)c(Cc5ccc(F)cc5)cc4cc23)ccn1 [Example 21] | 0.25 to 1 | – | 0.25 to 1 | 0.25 to 1 | – | –
Cc1cc(-c2n[nH]c3cc4c(cc23)CN([C@H](C)c2ccc(C#N)cc2)C(=O)N4)ccn1 [Example 23] | > 1 | – | ≤ 0.25 | 0.25 to 1 | – | –
Cc1cc(-c2n[nH]c3cc4[nH]c(=O)n(Cc5cccc(Cl)c5)c(=O)c4cc23)ccn1 [Example 24] | > 1 | – | – | > 1 | – | –
Cc1cc(-c2n[nH]c3cc4c(cc23)CN([C@@H]2CCCN(CC(F)(F)F)C2)C(=O)N4)ccn1 [Example 193] | – | 0.25 to 1 | ≤ 0.25 | 0.25 to 1 | – | –
Cc1cc(-c2n[nH]c3cc4c(cc23)CN([C@@H]2CCCN(Cc3ccc(F)cc3F)C2)C(=O)N4)ccn1 [Example 196] | – | ≤ 0.25 | ≤ 0.25 | ≤ 0.25 | – | –
Cc1cc(-c2n[nH]c3cc4c(cc23)CN([C@@H]2CCCN(c3ccc(F)cn3)C2)C(=O)N4)ccn1 [Example 199] | – | 0.25 to 1 | ≤ 0.25 | 0.25 to 1 | – | –
Cc1cc(-c2n[nH]c3cc4c(cc23)CN(C2CN(Cc3ccccc3)CC(F)(F)C2)C(=O)N4)ccn1 (centres unmarked) [Example 200] | – | 0.25 to 1 | ≤ 0.25 | 0.25 to 1 | – | –
Cc1cc(-c2n[nH]c3cc4c(cc23)CN(C2CN(CC3CCCC3)CC(F)(F)C2)C(=O)N4)ccn1 (centres unmarked) [Example 201] | – | > 1 | > 1 | > 1 | – | –
Cc1cc(-c2n[nH]c3cc4c(cc23)CN(C2CN(Cc3cc(F)cc(F)c3)CC(F)(F)C2)C(=O)N4)ccn1 (centres unmarked) [Example 202] | – | > 1 | > 1 | > 1 | – | –
Cc1cc(-c2n[nH]c3cc4c(cc23)CN(C2CCCCC2)C(=O)N4)ccn1 [Example 204] | – | > 1 | 0.25 to 1 | 0.25 to 1 | – | –
Cc1cc(-c2n[nH]c3cc4c(cc23)CN(C2CCCC2)C(=O)N4)ccn1 [Example 205] | – | 0.25 to 1 | ≤ 0.25 | 0.25 to 1 | – | –
Cc1cc(-c2n[nH]c3cc4c(cc23)CN([C@@H]2CCN(CC(F)(F)F)C2)C(=O)N4)ccn1 [Example 214] | – | ≤ 0.25 | ≤ 0.25 | ≤ 0.25 | – | –
Cc1cc(-c2n[nH]c3cc4[nH]c(=O)c(C(O)c5ccccc5)cc4cc23)ccn1 (centres unmarked) [Example 221] | – | 0.25 to 1 | 0.25 to 1 | 0.25 to 1 | – | –
Cc1cc(-c2n[nH]c3cc4c(cc23)CN([C@@H]2CN(CC(F)(F)F)C[C@H]2c2ccccc2)C(=O)N4)ccn1 [Example 222] | – | 0.25 to 1 | ≤ 0.25 | 0.25 to 1 | – | –
O=C1Nc2cc3[nH]nc(CC4CCOCC4)c3cc2CN1[C@@H]1CN(CC(F)(F)F)C[C@H]1c1ccccc1 [Example 361] | – | – | ≤ 0.25 | – | – | 0.05 to 0.25
COc1ccc(-c2n[nH]c3cc4[nH]c(=O)c(C5CCCN(Cc6ccccc6)C5)cc4cc23)cn1 (centres unmarked) [Example 367] | – | – | 0.25 to 1 | – | – | < 0.05

Continued, values first:

IC50 (WM-266-4 cells) [µM] | IC50 (H358 (Kras, G12C) cells) [µM] | IC50 [1] [µM] | IC50 (A375 cells) [µM] | IC50 (ERK2 enzyme; In vitro, ERK2 enzyme) [µM] | IC50 (ERK2 enzyme; [2]) [µM] | SMILES
≤ 0.25 | ≤ 0.25 | ≤ 0.25 | ≤ 0.25 | – | – | O=C1Nc2cc3[nH]nc(-c4ccncc4)c3cc2CN1Cc1ccccc1 [Example 1, 6-benzyl-3-(pyridin-4-yl)-1,5,6,8-tetrahydro-7H-pyrazolo[4,3-g]quinazolin-7-one]
0.25 to 1 | – | ≤ 0.25 | 0.25 to 1 | – | – | Cc1cc(-c2n[nH]c3cc4c(cc23)CN([C@H](C)c2ccccc2)C(=O)N4)ccn1 [Example 2, (R)-3-(2-methylpyridin-4-yl)-6-(1-phenylethyl)-5,6-dihydro-1H-pyrazolo[4,3-g]quinazolin-7(8H)-one]
≤ 0.25 | – | ≤ 0.25 | ≤ 0.25 | – | – | O=C1Nc2cc3[nH]nc(-c4ccncc4)c3cc2CN1Cc1cccc(Cl)c1 [Example 3]
≤ 0.25 | – | ≤ 0.25 | ≤ 0.25 | – | – | Cc1cc(-c2n[nH]c3cc4c(cc23)CN(Cc2cccc(Cl)c2)C(=O)N4)ccn1 [Example 4]
≤ 0.25 | – | ≤ 0.25 | 0.25 to 1 | – | – | Cc1cc(-c2n[nH]c3cc4c(cc23)CN(Cc2cc(F)cc(F)c2)C(=O)N4)ccn1 [Example 7]
≤ 0.25 | – | ≤ 0.25 | 0.25 to 1 | – | – | Cc1cc(-c2n[nH]c3cc4c(cc23)CN(Cc2ccc(F)c(Cl)c2)C(=O)N4)ccn1 [Example 8]
≤ 0.25 | – | ≤ 0.25 | 0.25 to 1 | – | – | COc1ccc(CN2Cc3cc4c(-c5ccnc(C)c5)n[nH]c4cc3NC2=O)cc1 [Example 10]
≤ 0.25 | – | ≤ 0.25 | 0.25 to 1 | – | – | Cc1cc(-c2n[nH]c3cc4c(cc23)CN(Cc2ccc(F)cc2F)C(=O)N4)ccn1 [Example 11]
≤ 0.25 | – | ≤ 0.25 | 0.25 to 1 | – | – | Cc1cc(-c2n[nH]c3cc4c(cc23)CN(Cc2ccc(C(F)(F)F)cc2)C(=O)N4)ccn1 [Example 12]
0.25 to 1 | – | ≤ 0.25 | 0.25 to 1 | – | – | Cc1cc(-c2n[nH]c3cc4c(cc23)CN(Cc2ccc(F)c(F)c2)C(=O)N4)ccn1 [Example 13]
0.25 to 1 | – | ≤ 0.25 | 0.25 to 1 | – | – | Cc1cc(-c2n[nH]c3cc4c(cc23)CN(Cc2ccc(Cl)cc2)C(=O)N4)ccn1 [Example 14]
0.25 to 1 | – | ≤ 0.25 | 0.25 to 1 | 0.05 to 0.25 | – | Cc1cc(-c2n[nH]c3cc4c(cc23)CN([C@H](C)c2ccc(Cl)cc2)C(=O)N4)ccn1 [Example 16]
0.25 to 1 | – | ≤ 0.25 | 0.25 to 1 | – | – | Cc1cc(-c2n[nH]c3cc4c(cc23)CN(CCc2ccc(F)cc2)C(=O)N4)ccn1 [Example 18]
≤ 0.25 | – | ≤ 0.25 | ≤ 0.25 | – | – | Cc1cc(-c2n[nH]c3cc4[nH]c(=O)c(C(C)c5ccccc5)cc4cc23)ccn1 (centres unmarked) [Example 22]
